Assay results: PubChem BioAssay (NCI)
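The compound was tested at five concentrations on cells cultured in 96-well plates, with a 48-hour exposure period. The concentration for 50% growth inhibition is given as GI50. TGI denotes the concentration required for complete inhibition of growth.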

How the values were obtained:
Test in all cases: growth of human tumour cells (NCI), 48 h
SF-539 CNS = test system: SF-539 CNS
A498 renal = test system: A498 renal
K-562 leukemia = test system: K-562 leukemia
OVCAR-4 ovarian = test system: OVCAR-4 ovarian
SK-MEL-28 melanoma = test system: SK-MEL-28 melanoma
IGROV1 ovarian = test system: IGROV1 ovarian
HOP-92 NSCLC = test system: HOP-92 NSCLC
SN12C renal = test system: SN12C renal
SK-MEL-5 melanoma = test system: SK-MEL-5 melanoma
UO-31 renal = test system: UO-31 renal

Row | SMILES | GI50 (SF-539 CNS) | TGI (SF-539 CNS) | GI50 (A498 renal) | TGI (A498 renal) | GI50 (K-562 leukemia) | TGI (K-562 leukemia) | GI50 (OVCAR-4 ovarian) | TGI (OVCAR-4 ovarian) | GI50 (SK-MEL-28 melanoma) | TGI (SK-MEL-28 melanoma) | GI50 (IGROV1 ovarian) | TGI (IGROV1 ovarian) | GI50 (HOP-92 NSCLC) | TGI (HOP-92 NSCLC) | GI50 (SN12C renal) | TGI (SN12C renal) | GI50 (SK-MEL-5 melanoma) | TGI (SK-MEL-5 melanoma) | GI50 (UO-31 renal) | TGI (UO-31 renal)
1 | COc1ccc(-c2csc(N(C(=O)N3CCN(c4cc5c(cc4F)c(=O)c(C(=O)O)cn5C4CC4)CC3)c3ccccc3)n2)cc1 | 2.93 µM | 48.7 µM | 1.34 µM | 6.42 µM | 3.1 µM | > 100 µM | 1.56 µM | > 100 µM | 5.17 µM | > 100 µM | 1.21 µM | > 100 µM | 0.597 µM | 2.14 µM | 2.95 µM | > 100 µM | 2.86 µM | 8.39 µM |  | 
2 | COc1cc2c(c(OC)c1)C1c3ccccc3NC(=O)N1CC2 (stereo unspecified) | 1.7 µM | 7.26 µM |  |  | 2.98 µM | > 100 µM | 8.24 µM | > 100 µM | 9.41 µM | 28.5 µM | 7.71 µM | > 100 µM | 7.25 µM | > 100 µM | 7.27 µM | > 100 µM | 4.01 µM | 15.3 µM | 2.81 µM | 85.4 µM
3 | CC#C[C@]1(O)CC[C@H]2[C@@H]3CCC4=CC(=O)CCC4=C3[C@@H](c3ccc4c(c3)OCO4)C[C@@]21C | 89.2 µM | 274 µM | 88.3 µM | 268 µM |  |  | 61.1 µM | 989 µM | 85.8 µM | 276 µM | 59.9 µM | 589 µM | 17.7 µM | 131 µM | 83.2 µM | 464 µM | 66.1 µM | 199 µM | 49.6 µM | 218 µM
4 | O=C(CN1CCOCC1)Nc1nc(-c2ccc(Cl)cc2)cs1 |  | > 100 µM |  | > 100 µM |  | 94.5 µM |  | > 100 µM |  | 74.8 µM |  | > 100 µM |  | > 100 µM |  | > 100 µM |  |  |  | 67 µM
5 | CC(CCC(=O)O)[C@H]1CCC2[C@@H]3CC[C@@H]4CC(O)CC[C@]4(C)C3CC[C@@]21C (stereo partly specified) | 26 µM | 72.4 µM |  | > 100 µM | 32.6 µM | > 100 µM | 31.4 µM | > 100 µM | 54.4 µM | > 100 µM | 40.7 µM | > 100 µM | 28 µM | 87.9 µM | > 100 µM | > 100 µM |  |  | 22.1 µM | 67.3 µM
6 | Cc1ccc(N=Nc2c(O)c(C(=O)O)cc3ccccc23)cc1C |  | > 100 µM |  |  |  | > 100 µM |  | > 100 µM |  | > 100 µM |  | > 100 µM |  | > 100 µM |  |  |  | > 100 µM |  | > 100 µM
7 | C=CCC[CH2][Sn]([c]1ccccc1)([c]1ccccc1)[c]1ccccc1 | 1.94 µM | 3.52 µM |  |  | 2.15 µM | 16.5 µM | 1.48 µM | 2.86 µM | 1.84 µM | 3.47 µM | 1.77 µM | 3.35 µM | 1.78 µM | 3.38 µM | 1.57 µM | 2.95 µM | 1.65 µM | 3.02 µM | 1.89 µM | 3.36 µM
